In this experiment the test system is MV-4-11 cells. Briefly: Gene expression microarray analysis (Affymetrix PrimeView) and GSEA. In kind it is cell-based, human. More on the design: RFU PODN (11730768_x_at) / Fold change /veh PODN (11730768_x_at) / RFU LINC00158 (11744669_a_at) / Fold change /veh LINC00158 (11744669_a_at) / RFU DUSP10 (11751237_a_at) / Fold change /veh DUSP10 (11751237_a_at) / RFU ID3 (11757404_x_at) / Fold change /veh ID3 (11757404_x_at) / RFU PLEKHG5 (11737974_s_at) / Fold change /veh PLEKHG5 (11737974_s_at) / RFU LRRC4B (11730491_at) / Fold change /veh LRRC4B (11730491_at) / RFU GIMAP4 (11747438_a_at) / Fold change /veh GIMAP4 (11747438_a_at) / RFU KRT8 (11758183_x_at) / Fold change /veh KRT8 (11758183_x_at) / RFU CNN1 (11734310_a_at) / Fold change /veh CNN1 (11734310_a_at) / RFU VPS37D (11726825_at) / Fold change /veh VPS37D (11726825_at) / RFU C10orf10 (11716522_x_at) / Fold change /veh C10orf10 (11716522_x_at) / RFU KIR2DL2 /// KIR2DL4 /// KIR2DL5A /// KIR2DL5B /// KIR2DS1 /// KIR2DS2 /// KIR2DS3 /// KIR2DS4 /// KIR3DL3 /// KIR3DL3 /// KIR3DS1 (11738374_at) / Fold change /veh KIR2DL2 /// KIR2DL4 /// KIR2DL5A /// KIR2DL5B /// KIR2DS1 /// KIR2DS2 /// KIR2DS3 /// KIR2DS4 /// KIR3DL3 /// KIR3DL3 /// KIR3DS1 (11738374_at) / RFU C1QL1 (11718748_at) / Fold change /veh C1QL1 (11718748_at) / RFU TMPRSS4 (11747572_a_at) / Fold change /veh TMPRSS4 (11747572_a_at) / RFU HAMP (11756126_x_at) / Fold change /veh HAMP (11756126_x_at) / RFU RNFT2 (11725882_a_at) / Fold change /veh RNFT2 (11725882_a_at) / RFU NR4A2 (11747474_a_at) / Fold change /veh NR4A2 (11747474_a_at) / RFU ABCC12 (11746883_a_at) / Fold change /veh ABCC12 (11746883_a_at) / RFU TMEM136 (11760407_x_at) / Fold change /veh TMEM136 (11760407_x_at) / RFU CLDN22 /// WWC2 (11732394_at) / Fold change /veh CLDN22 /// WWC2 (11732394_at) / RFU HLA-DPB1 (11760878_x_at) / Fold change /veh HLA-DPB1 (11760878_x_at) / RFU SPINT1 (11716480_a_at) / Fold change /veh SPINT1 (11716480_a_at) / RFU GAP43 (11754022_s_at) / Fold change /veh GAP43 (11754022_s_at) / RFU A4GNT (11735810_at) / Fold change /veh A4GNT (11735810_at) / RFU PRB3 (11715151_x_at) / Fold change /veh PRB3 (11715151_x_at) / RFU TUBB4B (11761932_at) / Fold change /veh TUBB4B (11761932_at) / RFU CAPN14 (11732068_a_at) / Fold change /veh CAPN14 (11732068_a_at) / RFU TMCC2 (11721928_a_at) / Fold change /veh TMCC2 (11721928_a_at) / RFU IRGQ (11745062_a_at) / Fold change /veh IRGQ (11745062_a_at) / RFU FAM174B (11720279_a_at) / Fold change /veh FAM174B (11720279_a_at) / RFU TMPRSS4 (11748680_a_at) / Fold change /veh TMPRSS4 (11748680_a_at) / RFU FAM212B (11763350_a_at) / Fold change /veh FAM212B (11763350_a_at) / RFU PLEKHG5 (11743358_a_at) / Fold change /veh PLEKHG5 (11743358_a_at) / RFU ZSCAN30 (11745921_a_at) / Fold change /veh ZSCAN30 (11745921_a_at) / RFU CMKLR1 (11741424_a_at) / Fold change /veh CMKLR1 (11741424_a_at) / RFU LOC101060620 /// MAPK8IP1 (11723275_at) / Fold change /veh LOC101060620 /// MAPK8IP1 (11723275_at) / RFU SPTSSB (11747773_x_at) / Fold change /veh SPTSSB (11747773_x_at) / RFU PRSS12 (11739890_at) / Fold change /veh PRSS12 (11739890_at) / RFU BIN1 (11741810_x_at) / Fold change /veh BIN1 (11741810_x_at) / RFU WNT11 (11732464_a_at) / Fold change /veh WNT11 (11732464_a_at) / RFU C10orf10 (11716521_a_at) / Fold change /veh C10orf10 (11716521_a_at) / RFU C5orf56 (11738089_at) / Fold change /veh C5orf56 (11738089_at) / RFU CYB561 (11721691_x_at) / Fold change /veh CYB561 (11721691_x_at) / RFU ANKRD19P (11752326_a_at) / Fold change /veh ANKRD19P (11752326_a_at) / RFU OR2T12 /// OR2T33 /// OR2T8 (11738714_s_at) / Fold change /veh OR2T12 /// OR2T33 /// OR2T8 (11738714_s_at) / RFU VCAN (11748164_a_at) / Fold change /veh VCAN (11748164_a_at) / RFU JSRP1 (11732532_at) / Fold change /veh JSRP1 (11732532_at) / RFU KRTAP10-11 (11738290_x_at) / Fold change /veh KRTAP10-11 (11738290_x_at) / RFU MYO3A (11730013_a_at) / Fold change /veh MYO3A (11730013_a_at) / RFU EBF3 (11725865_a_at) / Fold change /veh EBF3 (11725865_a_at) / RFU CAMK2N1 (11719241_x_at) / Fold change /veh CAMK2N1 (11719241_x_at) / RFU C5orf56 (11738088_a_at) / Fold change /veh C5orf56 (11738088_a_at) / RFU OLFML3 (11715873_a_at) / Fold change /veh OLFML3 (11715873_a_at) / RFU LOC100653217 /// NTM (11731650_a_at) / Fold change /veh LOC100653217 /// NTM (11731650_a_at) / RFU MAPK11 (11762145_a_at) / Fold change /veh MAPK11 (11762145_a_at) / RFU FIZ1 (11724087_x_at) / Fold change /veh FIZ1 (11724087_x_at) / RFU OASL (11726364_x_at) / Fold change /veh OASL (11726364_x_at) / RFU SOX15 (11748057_x_at) / Fold change /veh SOX15 (11748057_x_at) / RFU CD79A (11719716_a_at) / Fold change /veh CD79A (11719716_a_at) / RFU HIST1H1D (11736915_at) / Fold change /veh HIST1H1D (11736915_at) / RFU CASKIN2 (11723855_a_at) / Fold change /veh CASKIN2 (11723855_a_at) / RFU LOC730098 (11760151_x_at) / Fold change /veh LOC730098 (11760151_x_at) / RFU OR4N2 (11742367_at) / Fold change /veh OR4N2 (11742367_at) / RFU PRRT2 (11749266_a_at) / Fold change /veh PRRT2 (11749266_a_at) / RFU SNX32 (11753110_a_at) / Fold change /veh SNX32 (11753110_a_at) / RFU CDHR5 (11726645_a_at) / Fold change /veh CDHR5 (11726645_a_at) / RFU RCAN1 (11760418_a_at) / Fold change /veh RCAN1 (11760418_a_at) / RFU FAM167A (11723789_a_at) / Fold change /veh FAM167A (11723789_a_at) / RFU FAM26E (11764081_at) / Fold change /veh FAM26E (11764081_at) / RFU ISYNA1 (11749810_s_at) / Fold change /veh ISYNA1 (11749810_s_at) / RFU ACY1 (11761880_at) / Fold change /veh ACY1 (11761880_at) / RFU 11764098_at / Fold change /veh 11764098_at / RFU SAMD14 (11745864_x_at) / Fold change /veh SAMD14 (11745864_x_at) / RFU NPB (11741838_a_at) / Fold change /veh NPB (11741838_a_at) / RFU TMPRSS6 (11731388_a_at) / Fold change /veh TMPRSS6 (11731388_a_at) / RFU KRTAP10-2 (11738614_at) / Fold change /veh KRTAP10-2 (11738614_at) / RFU ARHGAP8 /// PRR5-ARHGAP8 (11727945_x_at) / Fold change /veh ARHGAP8 /// PRR5-ARHGAP8 (11727945_x_at) / RFU KRTAP5-7 /// NADSYN1 (11734609_at) / Fold change /veh KRTAP5-7 /// NADSYN1 (11734609_at) / RFU RASL12 (11751679_a_at) / Fold change /veh RASL12 (11751679_a_at) / RFU CDKN2B (11736163_a_at) / Fold change /veh CDKN2B (11736163_a_at) / RFU PRF1 (11729649_at) / Fold change /veh PRF1 (11729649_at) / RFU, ZNF638 /// ZNF638-IT1 / Fold change vs veh, ZNF638 /// ZNF638-IT1 / RFU, PANK3 / Fold change vs veh, PANK3 / RFU, SH3YL1 / Fold change vs veh, SH3YL1 / RFU, ZEB2 / Fold change vs veh, ZEB2 / RFU, NRIP1 / Fold change vs veh, NRIP1 / RFU, PTTG1IP / Fold change vs veh, PTTG1IP / RFU, CAPN2 / Fold change vs veh, CAPN2 / RFU, MED14 / Fold change vs veh, MED14 / RFU, SNORA58 / Fold change vs veh, SNORA58 / RFU, C1orf63 / Fold change vs veh, C1orf63 / RFU, LRRFIP1 / Fold change vs veh, LRRFIP1 / RFU, NDUFAF7 / Fold change vs veh, NDUFAF7 / RFU, SLC12A2 / Fold change vs veh, SLC12A2 / RFU, IBTK / Fold change vs veh, IBTK / RFU, ESF1 / Fold change vs veh, ESF1 / Fold change vs veh, TMEM50B / RFU, TAOK1 / Fold change vs veh, TAOK1 / RFU, ACBD3 / Fold change vs veh, ACBD3 / RFU, TMA16 / Fold change vs veh, TMA16 / RFU, RWDD3 / Fold change vs veh, RWDD3 / RFU, BCAT1 / Fold change vs veh, BCAT1 / RFU, EDEM3 / Fold change vs veh, EDEM3 / RFU, TMEM33 / Fold change vs veh, TMEM33 / RFU, WDR75 / Fold change vs veh, WDR75 / RFU, AHCTF1 / Fold change vs veh, AHCTF1 / RFU, TFRC / Fold change vs veh, TFRC / RFU, ZDHHC17 / Fold change vs veh, ZDHHC17 / RFU, NOM1 / Fold change vs veh, NOM1 / RFU, ARL8B / Fold change vs veh, ARL8B / RFU, ZBTB11 / Fold change vs veh, ZBTB11 / RFU, TAMM41 / Fold change vs veh, TAMM41 / RFU, KIAA1704 /// LOC100996395 / Fold change vs veh, KIAA1704 /// LOC100996395 / RFU, ING1 / Fold change vs veh, ING1 / RFU, TRMT61B / Fold change vs veh, TRMT61B / RFU, FUBP3 / Fold change vs veh, FUBP3 / RFU, TP53 / Fold change vs veh, TP53 / RFU, TNKS2 / Fold change vs veh, TNKS2 / RFU, ZFP14 / Fold change vs veh, ZFP14 / RFU, ACTR2 / Fold change vs veh, ACTR2 / RFU, PPP3R1 / Fold change vs veh, PPP3R1 / RFU, PIK3R1 / Fold change vs veh, PIK3R1 / RFU, HNRNPA1 / Fold change vs veh, HNRNPA1 / RFU, RNF170 / Fold change vs veh, RNF170 / RFU, ZNF28 / Fold change vs veh, ZNF28 / RFU, RNGTT / Fold change vs veh, RNGTT / RFU, OGT / Fold change vs veh, OGT / RFU, BRD1 / Fold change vs veh, BRD1 / RFU, MARS / Fold change vs veh, MARS / RFU, ZNF655 / Fold change vs veh, ZNF655 / RFU, FAHD1 / Fold change vs veh, FAHD1 / RFU, BDP1 / Fold change vs veh, BDP1 / RFU, LRRCC1 / Fold change vs veh, LRRCC1 / RFU, ARID1A / Fold change vs veh, ARID1A / RFU, ZNF146 / Fold change vs veh, ZNF146 / RFU, ZNF330 / Fold change vs veh, ZNF330 / RFU, GPN3 / Fold change vs veh, GPN3 / RFU, C9orf123 / Fold change vs veh, C9orf123 / RFU, N4BP2L2 / Fold change vs veh, N4BP2L2 / RFU, ARFIP1 / Fold change vs veh, ARFIP1 / RFU, FAM179B / Fold change vs veh, FAM179B / RFU, BCL10 / Fold change vs veh, BCL10 / RFU, UHRF1BP1L / Fold change vs veh, UHRF1BP1L / RFU, BET1 / Fold change vs veh, BET1 / RFU, CNOT2 / Fold change vs veh, CNOT2 / RFU, ZNF268 / Fold change vs veh, ZNF268 / Fold change vs veh, ZNF507 / RFU, DGCR2 / Fold change vs veh, DGCR2 / RFU, WDSUB1 / Fold change vs veh, WDSUB1 / Fold change vs veh, HSP90B1 /// MIR3652 / RFU, ADSS / Fold change vs veh, ADSS / RFU, GK / Fold change vs veh, GK / RFU, ZNF148 / Fold change vs veh, ZNF148 / RFU, TAF9 / Fold change vs veh, TAF9 / RFU, SLC1A5 / Fold change vs veh, SLC1A5 / RFU, SLMO2 / Fold change vs veh, SLMO2 / RFU, ABCC4 / Fold change vs veh, ABCC4 / RFU, LOC101060439 /// RAP1B / Fold change vs veh, LOC101060439 /// RAP1B / RFU, RFX7 / Fold change vs veh, RFX7 / RFU, GTPBP10 / Fold change vs veh, GTPBP10 / RFU, CNEP1R1 / Fold change vs veh, CNEP1R1 / RFU, BIVM-ERCC5 /// ERCC5 / Fold change vs veh, BIVM-ERCC5 /// ERCC5 / RFU, ILF3 / Fold change vs veh, ILF3 / RFU 11762660_at / Fold change /veh 11762660_at / RFU VCAN (11757783_s_at) / Fold change /veh VCAN (11757783_s_at) / RFU DDX43 (11728927_at) / Fold change /veh DDX43 (11728927_at) / RFU KRT8 (11758188_x_at) / Fold change /veh KRT8 (11758188_x_at) / RFU NKD1 (11759106_at) / Fold change /veh NKD1 (11759106_at) / RFU SRD5A1 (11742802_a_at) / Fold change /veh SRD5A1 (11742802_a_at) / RFU TPSAB1 /// TPSB2 (11721975_s_at) / Fold change /veh TPSAB1 /// TPSB2 (11721975_s_at) / RFU GSTM3 (11746129_a_at) / Fold change /veh GSTM3 (11746129_a_at) / RFU IL23R (11737362_x_at) / Fold change /veh IL23R (11737362_x_at) / RFU TMEM51 (11727254_a_at) / Fold change /veh TMEM51 (11727254_a_at) / RFU PIWIL2 (11732686_x_at) / Fold change /veh PIWIL2 (11732686_x_at) / RFU ORM1 (11744905_x_at) / Fold change /veh ORM1 (11744905_x_at) / RFU CCDC152 (11743942_at) / Fold change /veh CCDC152 (11743942_at) / RFU ECM1 (11717891_a_at) / Fold change /veh ECM1 (11717891_a_at) / RFU IL23R (11748794_a_at) / Fold change /veh IL23R (11748794_a_at) / RFU TNFAIP8L3 (11732012_x_at) / Fold change /veh TNFAIP8L3 (11732012_x_at) / RFU MBOAT4 (11741988_at) / Fold change /veh MBOAT4 (11741988_at) / RFU 11764193_at / Fold change /veh 11764193_at / RFU TMEM53 (11763286_at) / Fold change /veh TMEM53 (11763286_at) / RFU MAGEB2 (11727129_at) / Fold change /veh MAGEB2 (11727129_at) / RFU TMEM200A (11744735_a_at) / Fold change /veh TMEM200A (11744735_a_at) / RFU CCDC152 (11751479_a_at) / Fold change /veh CCDC152 (11751479_a_at) / RFU FAM211A (11726209_a_at) / Fold change /veh FAM211A (11726209_a_at) / RFU RGS16 (11746705_a_at) / Fold change /veh RGS16 (11746705_a_at) / RFU VCAN (11755009_s_at) / Fold change /veh VCAN (11755009_s_at) / RFU RHOB (11743442_s_at) / Fold change /veh RHOB (11743442_s_at) / RFU RGS16 (11720943_a_at) / Fold change /veh RGS16 (11720943_a_at) / RFU RGS16 (11720944_at) / Fold change /veh RGS16 (11720944_at) / RFU, VPS4B / Fold change vs veh, VPS4B / RFU, CREB1 / Fold change vs veh, CREB1 / RFU, DNAJC13 / Fold change vs veh, DNAJC13 / RFU, GNAQ / Fold change vs veh, GNAQ / RFU, CDK5R1 / Fold change vs veh, CDK5R1 / RFU, ZRANB3 / Fold change vs veh, ZRANB3 / RFU, CUL4A / Fold change vs veh, CUL4A / RFU, CCNY / Fold change vs veh, CCNY / RFU, UFL1 / Fold change vs veh, UFL1 / RFU, COG3 / Fold change vs veh, COG3 / RFU, DIAPH2 / Fold change vs veh, DIAPH2 / RFU, SKA2 / Fold change vs veh, SKA2 / RFU, AFF3 / Fold change vs veh, AFF3 / RFU, LMF1 / Fold change vs veh, LMF1 / RFU, IPO11 / Fold change vs veh, IPO11 / RFU, DFFB / Fold change vs veh, DFFB / RFU, FOXP1 / Fold change vs veh, FOXP1 / RFU, CARD8 / Fold change vs veh, CARD8 / RFU, STRN3 / Fold change vs veh, STRN3 / RFU, ADK / Fold change vs veh, ADK / RFU, RASSF2 / Fold change vs veh, RASSF2 / RFU, WIPF1 / Fold change vs veh, WIPF1 / RFU, LARP1B / Fold change vs veh, LARP1B / RFU, RASA1 / Fold change vs veh, RASA1 / RFU, RB1 / Fold change vs veh, RB1 / RFU, PPFIA1 / Fold change vs veh, PPFIA1 / RFU, MAT2A / Fold change vs veh, MAT2A / RFU, CCT5 / Fold change vs veh, CCT5 / RFU, WDR92 / Fold change vs veh, WDR92 / RFU, CUX1 / Fold change vs veh, CUX1 / RFU, TTC7A / Fold change vs veh, TTC7A / RFU, TMEM135 / Fold change vs veh, TMEM135 / RFU, DEPTOR / Fold change vs veh, DEPTOR / RFU, CPM / Fold change vs veh, CPM / RFU, DNAJB6 / Fold change vs veh, DNAJB6 / RFU, CACNA2D3 / Fold change vs veh, CACNA2D3 / RFU, DTX4 / Fold change vs veh, DTX4 / RFU, TFCP2 / Fold change vs veh, TFCP2 / RFU, GMCL1 /// GMCL1P1 / Fold change vs veh, GMCL1 /// GMCL1P1 / RFU, AEBP2 / Fold change vs veh, AEBP2 / RFU, SNHG1 /// SNORD22 /// SNORD25 /// SNORD26 /// SNORD27 /// SNORD28 /// SNORD29 /// SNORD31 / Fold change vs veh, SNHG1 /// SNORD22 /// SNORD25 /// SNORD26 /// SNORD27 /// SNORD28 /// SNORD29 /// SNORD31 / Fold change (Aza/veh), C12orf56 (ProbeSet 11735607_a_at) / Fold change (ACY-1035/veh), C12orf56 (ProbeSet 11735607_a_at) / Fold change (Aza/veh), FGFR1OP (ProbeSet 11751329_s_at) / Fold change (ACY-1035/veh), FGFR1OP (ProbeSet 11751329_s_at) / Fold change (Aza/veh), VPS36 (ProbeSet 11739960_a_at) / Fold change (ACY-1035/veh), VPS36 (ProbeSet 11739960_a_at) / RFU SYPL1 (11715823_x_at) / Fold change /veh SYPL1 (11715823_x_at) / RFU IGFBP7 (11715501_s_at) / Fold change /veh IGFBP7 (11715501_s_at) / RFU REEP3 (11722064_at) / Fold change /veh REEP3 (11722064_at) / RFU IGLL1 (11728026_x_at) / Fold change /veh IGLL1 (11728026_x_at): dose or concentration left out as unconfirmed. As to conditions: MV-4-11 cells, 48 hours.

On to `Nc1ccc(-c2cccs2)cc1NC(=O)c1ccc2c(c1)cc(C1CC1)n2CCN1CCOCC1` [ACY-1035], for which the “Fold change /veh PRRT2 (11749266_a_at)” value is on record as 1.00.

The record behind these values is PMC5218480 (PLoS ONE, 2017).
